Measurements reported in US20230333087A1, “METHODS FOR MONITORING PATIENT RESPONSE TO TREATMENT OF RETINAL OXIDATIVE DISEASES” (BioJiva LLC, priority 2022, published 2023).

Columns and labels:
Format in all cases: in vivo, C57BL/6J mice
[1] = D-DHA substitution rates in plasma, red blood cells and retina of mice on 0.5% w/w D-DHA diet; settings: for doubling interval of D-DHA substitution rate: first order kinetics
Source text: Mature adult C57BL/6J mice were fed for 78 days with a customized rodent diet containing 0.5% w/w D-DHA and no natural DHA. The animals were sacrificed, and plasma, red blood cells and retinal tissues were dissected at study Days 8, 19, 38, 78, (six animals per time point, 3 males + 3 females). D-DHA + DHA were extracted from samples and derivatized into methyl esters with a mixture of heptane/ toluene (63:37 by volume), and methanol/ dimethoxypropane/ sulfuric acid (85:11:4 by volume) by gentle shaking at 80° C. for 2 hours, followed by separation and drying down of the organic phase under nitrogen. D-DHA + DHA methyl esters were structurally identified and quantified by gas chromatography coupled with a tandem mass spectrometry detector and D-DHA substitution levels (in percent of total DHA) were calculated. The results are represented in Table 1 and graphed in FIG. 1.

[2] = system: iron-induced retinal autofluorescence and degeneration; assay: Iron-induced retinal autofluorescence and degeneration, cSLO and OCT imaging 1 week after intravitreal iron
Method: To evaluate the protective effect of 0.25% D-DHA diet, confocal scanning laser ophthalmoscopy (cSLO) and optical coherence tomography (OCT) were employed for in vivo imaging at 1 week after injections. For the cSLO imaging, both blue autofluorescence (BAF) and near-infra autofluorescence (IRAF) were performed.
(§1) Adult male wild-type C57BL/6J mice (Stock No.000664, Jackson Labs, Bar Harbor, ME, USA) were housed in standard conditions under cyclic light (12 h:12 h light-dark cycle). Mice had ad libitum access to water and food. Beginning at 2 mo of age, mice were placed on the AIN93G diet described above, supplemented with 0.25% D-DHA or DHA (control diet) for 1 week, 2 weeks, 3 weeks, or 4 weeks prior to the intravitreal injection. Mice were given an intravitreal injection of 1 µl 0.5 mM ferric ammonium citrate diluted in 0.9% NaCl (saline) (MP Biomedicals LLC, Santa Ana, CA) or
1 µl of saline as control. Intravitreal injections were performed as previously described ^54. Mice were continued on respective diet until their final evaluation. All housing and procedures were performed according to the NIH Guide for the Care and Use of Experimental Animals and approved by the University of Pennsylvania Animal Care and Use Committee.
(§2) Mice were given general anesthesia and placed on a platform. Pupils were dilated with 1% tropicamide saline solution (Akorn, Inc., Lake Forest, IL). Optical coherence tomography (OCT) imaging was performed for visualization of the retinal structure by using a Bioptigen
Envisu (R2200, Bioptigen Inc., Durham, NC, USA) coupled to a broadband LED light source (T870-HP, Superlum Diodes, Ltd, Ireland). Confocal scanning laser ophthalmoscopy (cSLO) (Spectralis HRA, Heidelberg Engineering, Franklin, MA, USA) was used for visualization of retinal AF using BluePeak™ or simply blue AF (488 nm excitation) and near-infrared AF (787 nm excitation) imaging modes.

retinal function = assay: Electroretinography
Method: (§3) Electroretinography was conducted on mice fed with D-DHA or natural DHA for 4 weeks to evaluate retinal function. […] Thus, using this measure, incorporation of D-DHA had no impact on retinal function (FIG. 7A). […] Toluidine blue staining was performed on plastic sections to examine retinal histology.
Mice were dark adapted overnight and anesthetized with the same procedure. The electroretinograms were recorded with an Espion E3 system (Diagnosys LLC, Lowell, MA) with a ganzfeld Color Dome stimulator as previously described. All electroretinography were performed at the same time of day.

retinal structure = assay: Toluidine blue staining of plastic sections, retinal histology and thickness
Method: as §3
Plastic sections (3 µm) were cut in the sagittal plane. The third eyelid was used for the orientation when embedding eye cups. Toluidine blue staining on plastic sections was used to evaluate retinal morphology.

[3] = system: carboxyethyl pyrrole (CEP); assay: Immunolabelling for CEP on cryosections; settings: 1 week after injection, 4 weeks diet
Method: Iron-catalyzed peroxidation of phospholipids containing DHA leads to unique carboxyethyl pyrrole (CEP) adducts not formed from any other PUFA. CEP has been detected by IHC in human AMD eyes and mouse retinas, including those from mice receiving IVT iron. To test whether D-DHA could protect against iron-induced CEP formation, mice were fed with D-DHA or DHA for 4 weeks prior to IVT injection of iron or control saline.
Cryosections were prepared at 4h and 1 week after injections. Co-labelling for CEP and rhodopsin was conducted to assess and localize CEP. […] At 1 week after injection, immunolabelling for CEP localized to RPE and infiltrating myeloid cells in IVT iron injected eyes of DHA fed mice, likely originationg from phagocytosed oxidized photoreceptor outer segments (FIG. 8B). Immunolabelling for CEP was undetected in D-DHA fed mice. […] Quantification of pixel density for CEP and L-Ft label was conducted using ImageJ software (FIGS. 8F and 8G), and quantitatively verified the results described above.
Immunofluorescence on cryosections was conducted as described previously. […] Images were acquired with an epifluorescence microscope (Nikon 80i microscope, Nikon, Tokyo, Japan), and analyzed using NIS-Elements (Nikon).

[4] = system: iron-induced geographic atrophy; assay: Iron-induced geographic atrophy development, imaging 4 weeks after injection; settings: 4 weeks diet before and 4 weeks after iron injection
Source text: To evaluate whether D-DHA could protect against geographic atrophy in this model, mice were continued on respective diets for 4 weeks after iron or saline injection. […] This corresponded to photoreceptor (white arrows) and RPE degeneration (black arrows) in OCT scans (FIG. 10C). […] Taken together, […] retinal D-DHA provided long-term protection against the geographic atrophy development induced by iron.
as §1, §2
Envisu (R2200, Bioptigen Inc., Durham, NC, USA) coupled to a broadband LED light source (T870-HP, Superlum Diodes, Ltd, Ireland). […]

[2H]C([2H])(/C=C\CC)/C=C\C([2H])([2H])/C=C\C([2H])([2H])/C=C\C([2H])([2H])/C=C\C([2H])([2H])/C=C\CCC(=O)OCC [D-DHA, 6,6,9,9,12,12,15,15,18,18-D10-(4Z,7Z,10Z,13Z,16Z, 19Z)-docosa 4,7,10,13,16, 19-hexaenoic acid ethyl ester]
D-DHA substitution levels (in percent of total DHA) ([1]; neuroretina, day 8): 20.89%
D-DHA substitution levels (in percent of total DHA) ([1]; neuroretina, day 19): 42.94%
D-DHA substitution levels (in percent of total DHA) ([1]; neuroretina, day 38): 70.74%
D-DHA substitution levels (in percent of total DHA) ([1]; neuroretina, day 78): 92.10%
D-DHA substitution levels (in percent of total DHA) ([1]; plasma, day 8 after first exposure, 0.5% w/w D-DHA diet): 84.78%
D-DHA substitution levels (in percent of total DHA) ([1]; plasma, day 19): 94.17%
D-DHA substitution levels (in percent of total DHA) ([1]; plasma, day 38): 97.34%
D-DHA substitution levels (in percent of total DHA) ([1]; plasma, day 78): 98.43%
doubling interval of D-DHA substitution rate ([1]; plasma): 6 to 7 days
D-DHA substitution levels (in percent of total DHA) ([1]; red blood cells, day 8): 48.24%
D-DHA substitution levels (in percent of total DHA) ([1]; red blood cells, day 19): 72.84%
D-DHA substitution levels (in percent of total DHA) ([1]; red blood cells, day 38): 94.12%
D-DHA substitution levels (in percent of total DHA) ([1]; red blood cells, day 78): 96.65%
doubling interval of D-DHA substitution rate ([1]; red blood cells): ~10 days
doubling interval of D-DHA substitution rate ([1]; retina): 20 to 22 days
iron induced retinal AF (BAF and IRAF cSLO images) ([2]; 0.25% D-DHA diet for 1, 2, 3 and 4 weeks before iron injection, 1 week after injection): dose-dependent reduction
protective effects (reduction of AF area) ([2]; at >30% retinal D-DHA substitution levels): > 50%
retinal structure in OCT scans ([2]; fed D-DHA for 4 weeks, 1 week after iron injection): complete protection
protection against iron-induced retinal damage ([2]; fed D-DHA for 4 weeks, >50% substitution in neural retina): nearly complete protection
rod-b wave, rod-a wave and cone-b wave amplitudes (retinal function; 4 weeks diet, mice not given IVT injections, compared to natural DHA): no significant difference
rod b-wave, rod a-wave and cone-b wave amplitudes (retinal function; iron injected eyes, ≥50% retinal D-DHA, 1 week after injection, compared to DHA plus iron): marked protection
retinal structure (toluidine blue histology) (retinal structure; 1 week after iron injection): complete protection
total retina thickness and outer retina thickness (retinal structure; IVT iron injected eyes, 1 week after injection): significantly protected and not different from saline injected eyes
immunolabelling for CEP [3]: undetected
geographic atrophy development [4]: fully protected
